Tests used:
Test in all cases: relative viability (nuclei count vs DMSO), 5 days (fraction); higher = more cells survive
SGI-1776 + Crizotinib = compound: CN1CCC(CNc2ccc3ncc(-c4cccc(OC(F)(F)F)c4)n3n2)CC1 [SGI-1776] + C[C@@H](Oc1cc(-c2cnn(C3CCNCC3)c2)cnc1N)c1c(Cl)ccc(F)c1Cl [Crizotinib] (partner 1 µM)
Procedure, shortened: (§1)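 Five library-drug doses in √10 steps were combined with a fixed anchor-drug dose, or a single drug was given alone, by pin tool to lung cancer cell lines in 1536-well plates the day after seeding. Nuclei were stained and counted after 5 days. Relative viability is the nuclei count in treated wells over that in vehicle wells, taken as the median of duplicate plates.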

SGI-1776 + Bortezomib = compound: CN1CCC(CNc2ccc3ncc(-c4cccc(OC(F)(F)F)c4)n3n2)CC1 [SGI-1776] + CC(C)C[C@H](NC(=O)[C@H](Cc1ccccc1)NC(=O)c1cnccn1)B(O)O [Bortezomib] (partner 0.002 µM)
Procedure, shortened: as §1

[1] = compound: C1COCCN1C2=NC(=NC3=C2OC4=C3C=CC=N4)C5=CC(=CC=C5)NC(=O)C6=CN=C(C=C6)N + CC(C)C[C@H](NC(=O)[C@H](Cc1ccccc1)NC(=O)c1cnccn1)B(O)O [Bortezomib] (partner 0.002 µM)
Procedure, shortened: as §1

SGI-1776 + Dasatinib = compound: CN1CCC(CNc2ccc3ncc(-c4cccc(OC(F)(F)F)c4)n3n2)CC1 [SGI-1776] + Cc1nc(Nc2ncc(C(=O)Nc3c(C)cccc3Cl)s2)cc(N2CCN(CCO)CC2)n1 [Dasatinib] (partner 0.075 µM)
Procedure, shortened: as §1

Cell Line | relative viability (SGI-1776 + Crizotinib; first compound 0.08 µM) | relative viability (SGI-1776 + Crizotinib; first compound 0.8 µM) | relative viability (SGI-1776 + Crizotinib; first compound 2.53 µM) | relative viability (SGI-1776 + Crizotinib; first compound 8 µM) | relative viability (SGI-1776 + Bortezomib; first compound 0.08 µM) | relative viability (SGI-1776 + Bortezomib; first compound 0.8 µM) | relative viability (SGI-1776 + Bortezomib; first compound 2.53 µM) | relative viability (SGI-1776 + Bortezomib; first compound 8 µM) | relative viability ([1]; first compound 0.02 µM) | relative viability ([1]; first compound 0.06325 µM) | relative viability ([1]; first compound 0.2 µM) | relative viability ([1]; first compound 0.6325 µM) | relative viability ([1]; first compound 2 µM) | relative viability (SGI-1776 + Dasatinib; first compound 0.08 µM) | relative viability (SGI-1776 + Dasatinib; first compound 0.8 µM) | relative viability (SGI-1776 + Dasatinib; first compound 2.53 µM) | relative viability (SGI-1776 + Dasatinib; first compound 8 µM)
NCI-H2087 | 0.724 | 0.907 | 1.19 | 0.758 | 0.772 | 0.802 | 0.982 | 0.722 | 0.802 | 0.889 | 0.854 | 0.862 | 0.361 | 0.782 | 1.09 | 0.826 | 0.595
HCC-78 | 0.352 | 0.311 | 0.346 | 0.318 | 0.48 | 0.516 | 0.516 | 0.45 | 0.394 | 0.61 | 0.555 | 0.444 | 0.497 | 0.416 | 0.455 | 0.369 | 0.366
NCI-H2228 | 0.523 | 0.417 | 0.396 | 0.15 | 1.05 | 0.917 | 0.992 | 0.531 | 1.25 | 1.1 | 0.975 | 0.84 | 0.488 | 0.581 | 0.665 | 0.416 | 0.27
H3255 | 1.03 | 1.01 | 0.896 | 0.62 | 0.963 | 0.75 | 0.606 | 0.33 | 0.622 | 0.718 | 0.687 | 0.805 | 0.611 | 0.4 | 0.371 | 0.378 | 0.277
HCC-15 | 0.819 | 0.816 | 0.761 | 0.764 | 1.03 | 1.03 | 1.02 | 0.886 | 1.03 | 1.04 | 0.994 | 1.05 | 0.677 | 0.577 | 0.551 | 0.466 | 0.382
NCI-H727 | 0.831 | 0.79 | 0.863 | 0.48 | 0.888 | 1.13 | 0.855 | 0.724 | 0.748 | 0.834 | 0.806 | 1.12 | 0.536 | 0.4 | 0.426 | 0.351 | 0.356
NCI-H2023 | 0.565 | 0.621 | 0.56 | 0.333 | 1.13 | 1.07 | 0.988 | 0.727 | 0.995 | 1.13 | 0.914 | 0.75 | 0.48 | 0.637 | 0.523 | 0.432 | 0.254
ChaGo-K-1 | 1.16 | 1.12 | 1.13 | 0.362 | 0.982 | 1.22 | 0.644 | 0.785 | 0.938 | 1.01 | 0.568 | 1.12 | 0.746 | 0.652 | 0.647 | 0.561 | 0.416
COR-L23 | 0.821 | 0.491 | 0.519 | 0.495 | 1.13 | 0.937 | 0.971 | 0.846 | 1.13 | 1.18 | 1.08 | 1.13 | 0.474 | 0.514 | 0.546 | 0.464 | 0.322
EMC-BAC-2 | 0.838 | 0.7 | 0.701 | 0.461 | 1.06 | 1.01 | 1.1 | 1.04 | 1.1 | 1.14 | 1.06 | 1 | 0.784 | 0.361 | 0.284 | 0.314 | 0.288
LCLC-97TM1 | 0.383 | 0.384 | 0.342 | 0.198 | 0.775 | 0.557 | 0.549 | 0.567 | 0.704 | 0.635 | 0.499 | 0.802 | 0.233 | 0.783 | 0.938 | 0.85 | 0.949
NCI-H3122 | 0.284 | 0.3 | 0.295 | 0.335 | 1.06 | 1.01 | 1.08 | 1.01 | 0.985 | 1.01 | 1.03 | 1.05 | 0.931 | 0.877 | 0.76 | 0.96 | 0.821
NCI-H2126 | 1.01 | 1.04 | 1.08 | 0.968 | 1.15 | 1.18 | 1.04 | 1.13 | 1.07 | 1.18 | 1.1 | 1.03 | 0.879 | 0.642 | 0.635 | 0.481 | 0.434
NCI-H520 | 0.773 | 0.828 | 0.728 | 0.473 | 0.859 | 0.776 | 0.716 | 0.22 | 0.637 | 0.641 | 0.465 | 0.529 | 0.298 | 0.279 | 0.221 | 0.153 | 0.131
LU99A | 0.621 | 0.529 | 0.549 | 0.288 | 1.3 | 1.15 | 1.53 | 1.03 | 1.12 | 1.17 | 1.07 | 0.748 | 0.497 | 0.727 | 0.56 | 0.382 | 0.441
NCI-H1666 | 1.08 | 0.934 | 0.803 | 0.668 | 0.81 | 0.826 | 0.918 | 0.56 | 0.781 | 0.902 | 0.735 | 0.588 | 0.486 | 0.822 | 0.791 | 0.75 | 0.711
NCI-H460 | 0.973 | 0.573 | 0.471 | 0.0428 | 1.18 | 1.2 | 1.11 | 0.82 | 1.45 | 1.13 | 1.27 | 1.02 | 0.125 | 0.52 | 0.543 | 0.508 | 0.299

From the supplement of paper PMC10307832
